How the values were obtained:
E. coli = experiment: Combination therapy: Fradiomycin with PDEA, visible growth; assay type: cell-based; conditions: no PDEA
Experimental: (§1) Different concentrations of Fradiomycin in Mueller Hinton were prepared in 3 different concentrations of PDEA. E. coli and S. aureus were inoculated (10^5) and were incubated overnight. Readouts were “Clear” and “Foggy”.

S. aureus = experiment: as above; assay type: cell-based; conditions: no PDEA
Experimental: as §1

For `NC[C@@H]1O[C@H](O[C@H]2[C@@H](O)[C@H](O[C@@H]3[C@@H](O)[C@H](N)C[C@H](N)[C@H]3O[C@H]3O[C@H](CN)[C@@H](O)[C@H](O)[C@H]3N)O[C@@H]2CO)[C@H](N)[C@@H](O)[C@@H]1O` [Fradiomycin], the visible growth readout (E. coli; Fradiomycin 0.0156 μg/ml) was “Foggy”, the visible growth readout (E. coli; Fradiomycin 0.03125 μg/ml) was “Foggy” and the visible growth readout (E. coli; Fradiomycin 0.0625 μg/ml) was “Foggy”. For the same compound, the visible growth readout (E. coli; Fradiomycin 0.125 μg/ml) was “Foggy”, the visible growth readout (E. coli; Fradiomycin 0.25 μg/ml) was “Foggy” and the visible growth readout (E. coli; Fradiomycin 0.5 μg/ml) was “Foggy”. The visible growth readout (E. coli; Fradiomycin 2 μg/ml) was “Clear”, the visible growth readout (E. coli; Fradiomycin 4 μg/ml) was “Clear” and the visible growth readout (E. coli; Fradiomycin 8 μg/ml) was “Clear”. The visible growth readout (E. coli; Fradiomycin 16 μg/ml) was “Clear”, the visible growth readout (E. coli; Fradiomycin 32 μg/ml) was “Clear” and the visible growth readout (E. coli; Fradiomycin 64 μg/ml) was “Clear”. For the same compound, the visible growth readout (E. coli; Fradiomycin 128 μg/ml) was “Clear”, the visible growth readout (E. coli; Fradiomycin 256 μg/ml) was “Clear” and the visible growth readout (S. aureus; Fradiomycin 0.0156 μg/ml) was “Foggy”. The visible growth readout (S. aureus; Fradiomycin 0.03125 μg/ml) was “Foggy”, the visible growth readout (S. aureus; Fradiomycin 0.0625 μg/ml) was “Foggy” and the visible growth readout (S. aureus; Fradiomycin 0.125 μg/ml) was “Foggy”. For the same compound, the visible growth readout (S. aureus; Fradiomycin 0.25 μg/ml) was “Foggy”, the visible growth readout (S. aureus; Fradiomycin 0.5 μg/ml) was “Foggy” and the visible growth readout (S. aureus; Fradiomycin 1 μg/ml) was “Clear”. For the same compound, the visible growth readout (S. aureus; Fradiomycin 2 μg/ml) was “Clear”, the visible growth readout (S. aureus; Fradiomycin 4 μg/ml) was “Clear” and the visible growth readout (S. aureus; Fradiomycin 8 μg/ml) was “Clear”. The visible growth readout (S. aureus; Fradiomycin 16 μg/ml) was “Clear”, the visible growth readout (S. aureus; Fradiomycin 32 μg/ml) was “Clear” and the visible growth readout (S. aureus; Fradiomycin 64 μg/ml) was “Clear”. For the same compound, the visible growth readout (S. aureus; Fradiomycin 128 μg/ml) was “Clear” and the visible growth readout (S. aureus; Fradiomycin 256 μg/ml) was “Clear”.
